Values after ≈ are worked out from the molar mass of the structure shown. Active and inactive are the calls of the source. No cut-off for these calls is given here.
How the values were obtained:
[1] = system: Mycobacterium tuberculosis; experiment: Antitubercular activity against replicating Mycobacterium tuberculosis H37Rv assessed as growth inhibition measured after 7 days incubation by microplate alamar blue assay; format: functional; details: 168 h
[2] = system: Mycobacterium tuberculosis; experiment: Antimycobacterial activity against dormant stage of Mycobacterium tuberculosis H37Ra ATCC 25177 assessed as growth inhibition at 10 uM incubated for 12 days by XRMA method relative to control; format: functional; details: H37Ra ATCC 25177, 288 h
CHO-K1 = experiment: Cytotoxicity against CHOK1 cells assessed as reduction in cell viability incubated for 24 hrs by MTT assay; format: cell-based; details: Cricetulus griseus, CHO-K1, 24 h
[3] = system: Mycolicibacterium fortuitum; experiment: Antimycobacterial activity against Mycobacterium fortuitum assessed as growth inhibition; format: functional, organism-based
Pseudomonas aeruginosa = experiment: Antibacterial activity against Pseudomonas aeruginosa ATCC 27853 assessed as growth inhibition incubated for 18 to 24 hrs by broth microdilution based antibiotic susceptibility testing method; format: functional
[4] = Selectivity index, ratio of IC50 for CHOK1 cells to MIC for Mycobacterium tuberculosis H37Rv; format: toxicity; details: hamster, CHO-K1 cells; read-out: Selectivity Index
Mycobacteroides chelonae = experiment: Antimycobacterial activity against Mycobacterium chelonae assessed as growth inhibition; format: functional, organism-based
Staphylococcus aureus = experiment: Antibacterial activity against Staphylococcus aureus ATCC 29213 assessed as growth inhibition incubated for 18 to 24 hrs by broth microdilution based antibiotic susceptibility testing method; format: functional
B16-F10 = experiment: Cytotoxicity against mouse B16F10 cells assessed as cell viability at 10 uM incubated for 24 hrs by MTT assay; format: cell-based; details: b16-f10, 24 h
Klebsiella pneumoniae = experiment: Antibacterial activity against Klebsiella pneumoniae BAA-1705 assessed as growth inhibition incubated for 18 to 24 hrs by broth microdilution based antibiotic susceptibility testing method; format: functional; details: ATCC BAA-1705
MCF7 = experiment: Cytotoxicity against human MCF7 cells assessed as cell viability at 10 uM incubated for 24 hrs by MTT assay; format: cell-based; details: mcf7, 24 h
[5] = system: Mycobacteroides abscessus; experiment: Antimycobacterial activity against Mycobacterium abscessus assessed as growth inhibition; format: functional, organism-based
Escherichia coli = experiment: Antibacterial activity against Escherichia coli ATCC 25922 assessed as growth inhibition incubated for 18 to 24 hrs by broth microdilution based antibiotic susceptibility testing method; format: functional

Structure (SMILES)	MIC [1]	inhibition at 10 µM [2]	further results
CO[C@H]1/C=C/O[C@@]2(C)Oc3c(C)c(O)c4c(O)c(c(/C=N/N5CCN(C)CC5)c(O)c4c3C2=O)NC(=O)/C(C)=C\C=C\[C@H](C)[C@H](O)[C@@H](C)[C@@H](O)[C@@H](C)[C@H](OC(C)=O)[C@@H]1C [RIFAMPIN]	0.2 µg/mL (≈ 0.243 µM)		
Cc1nc(C(=O)N[C@H](C)c2ccccc2)c(-c2ccc(C#N)cc2)s1	> 34 µg/mL	74%	
CC(C)c1nc(C(=O)N[C@@H](C)c2ccccc2)c(-c2ccc(C#N)cc2)s1	18.7 µg/mL (≈ 49.8 µM)	73.2%	
CCOC(=O)c1nc(C2CCCCC2)sc1-c1ccc2c(c1)OCO2	8.9 µg/mL (≈ 24.8 µM)	92%	
CC(C)c1nc(C(=O)NCc2cccnc2)c(-c2ccc3c(c2)OCO3)s1	9.5 µg/mL (≈ 24.9 µM)	87.1%	
Cc1nc(C(=O)NCc2cccnc2)c(-c2ccc(C#N)cc2)s1	> 34 µg/mL		
COc1ccc(CCNC(=O)c2nc(C3CCCCC3)sc2-c2ccc(C#N)cc2)cc1OC	5.9 µg/mL (≈ 12.4 µM)	71.6%	
CC(C)c1nc(C(=O)NCc2ccc(Cl)cc2)c(-c2ccc(C#N)cc2)s1	> 34 µg/mL		
CCOC(=O)c1nc(C)sc1-c1ccc(C#N)cc1	14.5 µg/mL (≈ 53.2 µM)	20.2%	
CC(C)c1nc(C(=O)N[C@H](C)c2ccccc2)c(-c2ccc3c(c2)OCO3)s1	4.9 µg/mL (≈ 12.4 µM)	90.9%	
CCOC(=O)c1nc(C(C)C)sc1-c1ccc2c(c1)NC(=O)CO2	> 34 µg/mL		
CCOC(=O)c1nc(C(C)C)sc1-c1cnc2ccccc2c1	4 µg/mL (≈ 12.3 µM)	80.5%	IC50 (CHO-K1): > 50 µg/mL; inhibition [3]: inactive; MIC (Pseudomonas aeruginosa): > 50 µM; selectivity ratio [4]: > 12.5; inhibition (Mycobacteroides chelonae): inactive; MIC (Staphylococcus aureus): > 50 µM; Activity (B16-F10): Non-Toxic; MIC (Klebsiella pneumoniae): > 50 µM; Activity (MCF7): Non-Toxic; inhibition [5]: inactive; MIC (Escherichia coli): > 50 µM
CC(C)c1nc(C(=O)NCc2cc(Cl)cc(Cl)c2)c(-c2ccc(C#N)cc2)s1	> 34 µg/mL		
CCOC(=O)c1nc(C)sc1-c1ccc2c(c1)OCO2	13.6 µg/mL (≈ 46.7 µM)		
CCOC(=O)c1nc(C2CCCCC2)sc1-c1cccc2cnccc12	4.5 µg/mL (≈ 12.3 µM)	96%	
COc1ccc(CCNC(=O)c2nc(C(C)C)sc2-c2ccc3c(c2)OCO3)cc1OC	5.6 µg/mL (≈ 12.3 µM)	84.9%	
CC(C)c1nc(C(=O)NCc2ccc(F)cc2)c(-c2ccc(C#N)cc2)s1	> 34 µg/mL		
CCOC(=O)c1nc(C2CCCCC2)sc1-c1cnc2ccccc2c1	4.5 µg/mL (≈ 12.3 µM)	86.5%	
CC(C)c1nc(C(=O)N2CCOCC2)c(-c2ccc(C#N)cc2)s1	> 34 µg/mL		
COc1ccc(CCNC(=O)c2nc(C(C)C)sc2-c2ccc(C#N)cc2)cc1OC	5.4 µg/mL (≈ 12.4 µM)	89.4%	
N#Cc1ccc(-c2sc(C3CCCCC3)nc2C(=O)N2CCOCC2)cc1	> 34 µg/mL		
CC(C)c1nc(C(=O)NCc2ccc3c(c2)OCO3)c(-c2ccc(C#N)cc2)s1	> 34 µg/mL		
Cc1nc(C(=O)N[C@@H](C)c2ccccc2)c(-c2ccc(C#N)cc2)s1	> 34 µg/mL	73.5%	
CCOC(=O)c1nc(C(C)C)sc1-c1cccc(C#N)c1	15 to 17 µg/mL (≈ 49.9 to 56.6 µM)		
CC(C)c1nc(C(=O)NC(C)c2ccc(Br)cc2)c(-c2ccc(C#N)cc2)s1 (centres undefined)	> 34 µg/mL		
CCOC(=O)c1nc(C(C)C)sc1-c1ccccc1C#N	15 µg/mL (≈ 49.9 µM)		

Structure (SMILES)	MIC [1]	inhibition at 10 µM [2]	further results
COc1ccc(CCNC(=O)c2nc(C)sc2-c2ccc(C#N)cc2)cc1OC	> 34 µg/mL	67.3%	
CC(C)c1nc(C(=O)NCc2cccnc2)c(-c2ccc(C#N)cc2)s1	> 34 µg/mL		
C[C@H](NC(=O)c1nc(C2CCCCC2)sc1-c1ccc(C#N)cc1)c1ccccc1	20.7 µg/mL (≈ 49.8 µM)		
CC(C)c1nc(C(=O)NCc2ccc(Cl)c(F)c2)c(-c2ccc(C#N)cc2)s1	> 34 µg/mL		
Cc1nc(C(=O)NCc2ccc3c(c2)OCO3)c(-c2ccc(C#N)cc2)s1	> 34 µg/mL		
CCOC(=O)c1nc(C(C)C)sc1-c1ccc(C#N)cc1	1.8 µg/mL (≈ 5.99 µM)	82.7%	IC50 (CHO-K1): 40.5 µg/mL (≈ 135 µM); inhibition [3]: inactive; MIC (Pseudomonas aeruginosa): > 50 µM; selectivity ratio [4]: 22.4; inhibition (Mycobacteroides chelonae): inactive; MIC (Staphylococcus aureus): > 50 µM; Activity (B16-F10): Non-Toxic; MIC (Klebsiella pneumoniae): > 50 µM; Activity (MCF7): Non-Toxic; inhibition [5]: inactive; MIC (Escherichia coli): > 50 µM
CC(C)c1nc(C(=O)NCc2ccc3c(c2)OCO3)c(-c2ccc3c(c2)OCO3)s1	10.6 µg/mL (≈ 25 µM)	82.2%	
CC(C)c1nc(C(=O)N[C@@H](C)c2ccccc2)c(-c2ccc3c(c2)OCO3)s1	4.9 µg/mL (≈ 12.4 µM)	90.8%	
N#Cc1ccc(-c2sc(C3CCCCC3)nc2C(=O)NCc2cccnc2)cc1	> 34 µg/mL		
CCOC(=O)c1nc(C2CCCCC2)sc1-c1ccccc1C#N	4.2 µg/mL (≈ 12.3 µM)	91.7%	IC50 (CHO-K1): > 50 µg/mL; inhibition [3]: inactive; MIC (Pseudomonas aeruginosa): > 50 µM; selectivity ratio [4]: > 11.9; inhibition (Mycobacteroides chelonae): inactive; MIC (Staphylococcus aureus): 50 µM (≈ 17 µg/mL); Activity (B16-F10): Non-Toxic; MIC (Klebsiella pneumoniae): > 50 µM; Activity (MCF7): Non-Toxic; inhibition [5]: inactive; MIC (Escherichia coli): > 50 µM
C[C@@H](NC(=O)c1nc(C2CCCCC2)sc1-c1ccc(C#N)cc1)c1ccccc1	10.3 µg/mL (≈ 24.8 µM)	57.8%	
CO[C@@]12[C@H](COC(N)=O)C3=C(C(=O)C(C)=C(N)C3=O)N1C[C@@H]1N[C@@H]12 [MITOMYCIN]			IC50 (CHO-K1): 13.1 µg/mL (≈ 39.2 µM)
CCOC(=O)c1nc(C2CCCCC2)sc1-c1cccc(C#N)c1	4.2 µg/mL (≈ 12.3 µM)	90.3%	IC50 (CHO-K1): > 50 µg/mL; inhibition [3]: inactive; MIC (Pseudomonas aeruginosa): > 50 µM; selectivity ratio [4]: > 11.9; inhibition (Mycobacteroides chelonae): inactive; MIC (Staphylococcus aureus): 50 µM (≈ 17 µg/mL); Activity (B16-F10): Non-Toxic; MIC (Klebsiella pneumoniae): > 50 µM; Activity (MCF7): Non-Toxic; inhibition [5]: inactive; MIC (Escherichia coli): > 50 µM
CCOC(=O)c1nc(C(C)C)sc1-c1cccc2cnccc12	16.3 µg/mL (≈ 49.9 µM)		
CCOC(=O)c1nc(C(C)C)sc1-c1ccc2nccnc2c1	8.1 µg/mL (≈ 24.7 µM)	19.5%	
CC(C)c1nc(C(=O)N2CCOCC2)c(-c2ccc3c(c2)OCO3)s1	> 34 µg/mL		
CCOC(=O)c1nc(C(C)C)sc1-c1ccc2c(c1)OCO2	7.9 µg/mL (≈ 24.7 µM)	90.1%	
CCOC(=O)c1nc(C2CCCCC2)sc1-c1ccc2nccnc2c1	4.5 µg/mL (≈ 12.2 µM)	93.3%	
CC(C)c1nc(C(=O)N[C@H](C)c2ccccc2)c(-c2ccc(C#N)cc2)s1	9.3 µg/mL (≈ 24.8 µM)	86.7%	
CC(C)c1nc(C(=O)N[C@H](C)c2cccc3ccccc23)c(-c2ccc(C#N)cc2)s1	> 34 µg/mL		
Cc1ccc(C(C)NC(=O)c2nc(C(C)C)sc2-c2ccc(C#N)cc2)cc1 (centres undefined)	> 34 µg/mL		
CCOC(=O)c1nc(C2CCCCC2)sc1-c1ccc2c(c1)NC(=O)CO2	19.3 µg/mL (≈ 49.9 µM)		
Cc1nc(C(=O)N2CCOCC2)c(-c2ccc(C#N)cc2)s1	> 34 µg/mL		
N#Cc1ccc(-c2sc(C3CCCCC3)nc2C(=O)NCc2ccc3c(c2)OCO3)cc1	> 34 µg/mL		
CC(C)c1nc(C(=O)NCc2ccccc2)c(-c2ccc(C#N)cc2)s1	> 34 µg/mL		

Reference: ChEMBL document CHEMBL4364263, “Synthesis and biological evaluation of 2,4,5-trisubstituted thiazoles as antituberculosis agents effective against drug-resistant tuberculosis” (Eur J Med Chem, 2019)
